From ChEMBL document CHEMBL5506020 (J Med Chem, 2024)
Activity calls are given as the source filed them. The calls are words filed in the database; no cut-off is given here.

What was measured:
[1] = Antiproliferative activity against human MOLM16 cells incubated for 72 hrs by Cell-Titer Glo assay; settings: MOLM16, 72 h
KG-1 [2] = test: Antiproliferative activity against human KG-1 cells
THP-1 [3] = test: Antiproliferative activity against human THP-1 cells
MV4-11 [4] = test: Antiproliferative activity against human MV4-11 cells incubated for 120 hrs by Cell-Titer Glo assay; settings: MV4-11, 120 h
EOL1 [5] = test: Antiproliferative activity against human EOL1 cells
MOLM-13 [6] = test: Antiproliferative activity against human MOLM-13 cells incubated for 72 hrs by Cell-Titer Glo assay; settings: MOLM-13, 72 h
MV4-11 [7] = test: Antitumor activity against human MV4-11 cells xenografted in NOD-SCID mouse assessed as tumor growth inhibition at 10 mg/kg, po QD for 2 weeks; type: functional; settings: MV4-11, 336 h, read-out: TGI
MV4-11 [8] = test: Downregulation of CDK5 protein in human MV4-11 cells at 10 nM incubated for 6 hrs by proteomic analysis; type: functional, cell-based
[9] = Toxicity in NOD/SCID mouse xenografted with human MV4-11 cells assessed as lymphocyte infiltration in liver at 2 to 5 mg/kg, ip administered every other day for 2 weeks by H and E staining based assay; type: organism-based; settings: in vivo, 336 h, dose 2-5 mg/kg
MV4-11 [10] = test: Downregulation of IKZF1 mRNA level in human MV4-11 cells at 100 nM incubated for 6 hrs by qRT-PCR analysis; type: functional, cell-based
MV4-11 [11] = test: Downregulation of p300 mRNA level in human MV4-11 cells at 100 nM incubated for 6 hrs by qRT-PCR analysis; type: functional, cell-based
KG-1 [12] = test: Antiproliferative activity against human KG-1 cells upto 10 uM; type: functional, cell-based
[13] = Toxicity in NOD/SCID mouse xenografted with human MV4-11 cells assessed as effect on heart at 2 to 5 mg/kg, ip administered every other day for 2 weeks by H and E staining based assay; type: organism-based; settings: in vivo, 336 h, dose 2-5 mg/kg
MV4-11 [14] = test: Downregulation of IKZF1 level in human MV4-11 cells at 10 uM incubated for 6 hrs by Western blotting analysis; type: functional, cell-based
MV4-11 [15] = test: Antitumor activity against human MV4-11 cells xenografted in NOD-SCID mouse assessed as tumor growth inhibition at 2 mg/kg, ip administered every other day for 2 weeks; type: functional; settings: MV4-11, 336 h, read-out: TGI
MV4-11 [16] = test: Downregulation of c-Myc protein level in human MV4-11 cells at 50 nM incubated for 24 hrs by Western blotting analysis; type: functional, cell-based
MV4-11 [17] = test: Downregulation of BRD3 protein level in human MV4-11 cells at 10 nM incubated for 6 hrs by proteomic analysis; type: functional, cell-based
MV4-11 [18] = test: Antitumor activity against human MV4-11 cells xenografted in NOD-SCID mouse assessed as tumor growth inhibition at 5 mg/kg, ip administered every other day for 2 weeks; type: functional; settings: MV4-11, 336 h, read-out: TGI
MV4-11 [19] = test: Downregulation of STAT1 protein in human MV4-11 cells at 10 nM incubated for 6 hrs by proteomic analysis; type: functional, cell-based
THP-1 [20] = test: Antiproliferative activity against human THP-1 cells upto 10 uM; type: functional, cell-based
MV4-11 [21] = test: Downregulation of TRIM24 protein level in human MV4-11 cells at 10 nM incubated for 6 hrs by proteomic analysis; type: functional, cell-based
Mus musculus [22] = test: In vivo induction of CBP degradation in NOD/SCID mouse tumor xenografted with human MV4-11 cells at 2 to 5 mg/kg, ip administered every other day for 2 weeks by immunoblotting analysis; type: functional, organism-based; settings: dose 2-5 mg/kg
MV4-11 [23] = test: Downregulation of BRD2 protein level in human MV4-11 cells at 10 nM incubated for 6 hrs by proteomic analysis; type: functional, cell-based
MOLM-13 [24] = test: Downregulation of c-Myc protein level in human MOLM-13 cells at 50 nM incubated for 24 hrs by Western blotting analysis; type: functional, cell-based
MOLM-16 = test: Downregulation of c-Myc protein level in human MOLM16 cells at 50 nM incubated for 24 hrs by Western blotting analysis; type: functional, cell-based
[25] = Toxicity in NOD/SCID mouse xenografted with human MV4-11 cells assessed as effect on kidney at 2 to 5 mg/kg, ip administered every other day for 2 weeks by H and E staining based assay; type: organism-based; settings: in vivo, 336 h, dose 2-5 mg/kg
MV4-11 [26] = test: Downregulation of BRD4 protein level in human MV4-11 cells at 10 nM incubated for 6 hrs by proteomic analysis; type: functional, cell-based
Mus musculus [27] = test: In vivo induction of p300 degradation in NOD/SCID mouse tumor xenografted with human MV4-11 cells at 2 to 5 mg/kg, ip administered every other day for 2 weeks by immunoblotting analysis; type: functional, organism-based; settings: dose 2-5 mg/kg
EOL1 [28] = test: Antiproliferative activity against human EOL1 cells upto 10 uM; type: functional, cell-based
[29] = Toxicity in NOD/SCID mouse xenografted with human MV4-11 cells assessed as body weight loss at 2 to 5 mg/kg, ip administered every other day for 2 weeks; type: organism-based; settings: in vivo, 336 h, dose 2-5 mg/kg
[30] = Toxicity in NOD/SCID mouse xenografted with human MV4-11 cells assessed as aggregation of multinucleated giant cells in spleen at 2 to 5 mg/kg, ip administered every other day for 2 weeks by H and E staining based assay; type: organism-based; settings: in vivo, 336 h, dose 2-5 mg/kg
MV4-11 [31] = test: Downregulation of TP53RK protein in human MV4-11 cells at 10 nM incubated for 6 hrs by proteomic analysis; type: functional, cell-based
MV4-11 [32] = test: Downregulation of CBP mRNA level in human MV4-11 cells at 100 nM incubated for 6 hrs by qRT-PCR analysis; type: functional, cell-based
[33] = Toxicity in NOD/SCID mouse xenografted with human MV4-11 cells assessed as effect on lung at 2 to 5 mg/kg, ip administered every other day for 2 weeks by H and E staining based assay; type: organism-based; settings: in vivo, 336 h, dose 2-5 mg/kg
MV4-11 [34] = test: Downregulation of STAT2 protein in human MV4-11 cells at 10 nM incubated for 6 hrs by proteomic analysis; type: functional, cell-based
MV4-11 [35] = test: Downregulation of KRAS protein in human MV4-11 cells at 10 nM incubated for 6 hrs by proteomic analysis; type: functional, cell-based
MV4-11 [36] = test: Downregulation of SMARCA4 protein level in human MV4-11 cells at 10 nM incubated for 6 hrs by proteomic analysis; type: functional, cell-based
MV4-11 [37] = test: Downregulation of GSPT1 protein level in human MV4-11 cells at 10 nM incubated for 6 hrs by proteomic analysis; type: functional, cell-based
MV4-11 [38] = test: Downregulation of ZFP91 protein level in human MV4-11 cells at 10 nM incubated for 6 hrs by proteomic analysis; type: functional, cell-based
MV4-11 [39] = test: Downregulation of IRF4 protein in human MV4-11 cells at 10 nM incubated for 6 hrs by proteomic analysis; type: functional, cell-based
[40] = Toxicity in NOD/SCID mouse xenografted with human MV4-11 cells assessed as effect on heart at 5 mg/kg, ip administered every other day for 2 weeks by H and E staining based assay; type: organism-based; settings: in vivo, 336 h
Mus musculus [41] = test: In vivo induction of CBP degradation in NOD/SCID mouse tumor xenografted with human MV4-11 cells at 5 mg/kg, ip administered every other day for 2 weeks by immunoblotting analysis; type: functional, organism-based
[42] = Toxicity in NOD/SCID mouse xenografted with human MV4-11 cells assessed as body weight loss at 5 mg/kg, ip administered every other day for 2 weeks; type: organism-based; settings: in vivo, 336 h
[43] = Toxicity in NOD/SCID mouse xenografted with human MV4-11 cells assessed as aggregation of multinucleated giant cells in spleen at 5 mg/kg, ip administered every other day for 2 weeks by H and E staining based assay; type: organism-based; settings: in vivo, 336 h
[44] = Toxicity in NOD/SCID mouse xenografted with human MV4-11 cells assessed as effect on lung at 5 mg/kg, ip administered every other day for 2 weeks by H and E staining based assay; type: organism-based; settings: in vivo, 336 h
[45] = Toxicity in NOD/SCID mouse xenografted with human MV4-11 cells assessed as effect on kidney at 5 mg/kg, ip administered every other day for 2 weeks by H and E staining based assay; type: organism-based; settings: in vivo, 336 h
MV4-11 [46] = test: Downregulation of p300 protein level in human MV4-11 cells assessed as fold decrease at 10 nM incubated for 6 hrs by proteomic blotting analysis; type: functional, cell-based
[47] = Toxicity in NOD/SCID mouse xenografted with human MV4-11 cells assessed as lymphocyte infiltration in liver at 5 mg/kg, ip administered every other day for 2 weeks by H and E staining based assay; type: organism-based; settings: in vivo, 336 h

SMILES	IC50 [1]	IC50 (MV4-11 [4])	IC50 (MOLM-13 [6])	Activity (MV4-11 [8])	Activity (MV4-11 [10])	Activity (MV4-11 [11])	Activity (KG-1 [12])	Activity (MV4-11 [14])	Activity (MV4-11 [16])	Activity (MV4-11 [17])	inhibition in vivo at 5 mg/kg (MV4-11 [18])	Activity (MV4-11 [19])	Activity (THP-1 [20])	Activity (MV4-11 [21])	Activity (MV4-11 [23])	Activity (MOLM-13 [24])	Activity (MOLM-16)	Activity (MV4-11 [26])	Activity (EOL1 [28])	Activity (MV4-11 [31])	other results
CO[C@H]1CC[C@H](n2c([C@@H]3CCCC(=O)N3c3ccc(F)c(F)c3)nc3cc(-c4c(C)noc4C)ccc32)CC1 [INOBRODIB]	0.0129 µM	0.0204 µM	0.103 µM																		IC50 (KG-1 [2]): < 3 µM; IC50 (THP-1 [3]): < 3 µM; IC50 (EOL1 [5]): < 3 µM; inhibition in vivo at 10 mg/kg (MV4-11 [7]): 65%
Cc1noc(C)c1-c1ccc2c(c1)nc([C@@H]1CCCC(=O)N1c1ccc(F)c(F)c1)n2C1CCN(CC(=O)Nc2ccc(-c3ccc(CNc4cccc5c4C(=O)N(C4CCC(=O)NC4=O)C5=O)cc3)nc2)CC1 (stereo partly drawn)	0.0046 µM	0.0018 µM	0.0269 µM	Active	Active	inactive	inactive	Active	Active	inactive	88%	Active	inactive	inactive	inactive	Active	Active	inactive	inactive	Active	Activity [9]: Toxic; Activity [13]: Non-Toxic; inhibition in vivo at 2 mg/kg (MV4-11 [15]): 53%; Activity (Mus musculus [22]): Active; Activity [25]: Non-Toxic; Activity (Mus musculus [27]): Active; Activity [29]: Non-Toxic; Activity [30]: Toxic; Activity (MV4-11 [32]): inactive; Activity [33]: Non-Toxic; Activity (MV4-11 [34]): Active; Activity (MV4-11 [35]): Active; Activity (MV4-11 [36]): inactive; Activity (MV4-11 [37]): inactive; Activity (MV4-11 [38]): inactive; Activity (MV4-11 [39]): Active
Cc1noc(C)c1-c1ccc2c(c1)nc([C@@H]1CCCC(=O)N1c1ccc(F)c(F)c1)n2C1CCN(CC(=O)Nc2cnc(-c3ccc(CNc4cccc5c4C(=O)N(C4CCC(=O)NC4=O)C5=O)cc3)nc2)CC1 (stereo partly drawn)	0.0055 µM	0.0009 µM	0.047 µM	Active	Active	inactive	inactive	Active	Active	inactive	93%	Active	inactive	inactive	inactive	Active	Active	inactive	inactive	Active	Activity [40]: Non-Toxic; Activity (Mus musculus [41]): Active; Activity [42]: Non-Toxic; Activity [43]: Toxic; Activity [44]: Non-Toxic; Activity [45]: Non-Toxic; Activity (MV4-11 [32]): inactive; Activity (MV4-11 [34]): Active; Activity (MV4-11 [35]): Active; Activity (MV4-11 [36]): inactive; Activity (MV4-11 [46]): inactive; Activity (MV4-11 [37]): inactive; Activity [47]: Toxic; Activity (MV4-11 [38]): inactive; Activity (MV4-11 [39]): Active
